Reference: patent US5852003A, “Drug and pharmaceutical composition for the treatment of muscles” (Societe Valbiofrance, priority 1994, dated 1998)
Entries after “also recorded” stand apart in the source; their conditions may differ. Blank lines part the entries; values can stand above or below the molecule they belong to.

How the values were obtained:
[1] = tested on: FGF 1; test: potentialization of FGF 1 biological activity, tritiated thymidine incorporation in CCL39 cells; format: cell-based
From the text: (§1) The cells used in this example are CCL39 cells from the American Tissue Culture Collection. The conditions concerning culture and the measurement test of FGF biological activity are the same as those described in the publication by Tardieu and coll. in the Journal of Cellular Physiology, 1992. The FGF growth factors used are the FGF 1 and FGF 2 recombinant forms.
(§2) In these experiments, the FGF 1 or 2 is used at a dose corresponding to the effective dose (called ED50) in order to induce a stimulation of the biological activity of 50% of the dose inducing the maximum stimulation. The biological activity is measured by the ability to induce an increase of the incorporation of tritiated thymidine in the cells according to protocols extensively described in numerous publications such as the previously mentioned publication by Tardieu et coll. and also in French Patent 2 644 066. […] In addition to this ability to potentialize the biological activity of the FGFs, the HBGFPPs protect the FGFs against thermal degradations and the inactivation induced by the proteolytic action of trypsin (FIGS. 3 to 5). Similarly, these HBGFPPs protect FGF1 and 2 against an inactivation induced by the proteolytic activity of trypsin (5A and 5B).

[2] = biological target: T1, beta TGF (Homo sapiens, UniProt P01137); test: protection of beta TGF against degradation by trypsin, beta TGF activity read on CCL64 cells; format: cell-based; conditions: for % inhibiting activity of the incorporation of tritiated thymidine in CCL64 cells: 37° C. 10 min, dilution 50 times
T1 construct: from tissue; host or cells: human blood platelets
Experimental: In order to measure the capacity of certain CMDBSs to interact with members of the beta TGF family and, by means of this interaction, to protect the beta TGFs, a grading test was devised.
The beta 1 TFG is prepared from human blood platelets according to a protocol described in numerous publications (for example Growth factors and their receptors, 1992, vol 1 pp 419-472, written by A. Roberts and M. Sporn, edited by A. Roberts and M. Sporn, and published by Springer Verlag Berlin) and are commonly used by persons of ordinary skill in the art. The beta TGF biological activity test used in this example is that of the inhibition of CCL64 cells (from the American Tissue Culture Collection). This inhibition is measured by the ability of the beta TGF to inhibit the incorporation of tritiated thymidine in a dose dependent manner in these CCL64 cells stimulated by the FGF or by fetal calf serum according to the protocol described by Van Zolen in Progress in Growth Factor Research, 1990, 2, pp 131 to 152.
Two doses of beta TGF are used, one corresponding to the 50% inhibition capacity of the incorporation of tritiated thymidine (defined as the inhibiting activity unit) and the other corresponding to the 100% inhibition capacity.
The final volume of the incubated solution is adjusted to 1 ml and incubation is carried out at 37° C. for a varying length of time (10 minutes in the example described (Table 1)).
20 μl samples of are taken from each of the incubation reactions and added to CCL64 cells cultivated in 24-well plates, each well containing milliliter of culture medium according to the aforementioned protocol described by E. Zohlen. In these conditions, the final concentration of beta TGF per well is 1 ng/ml.
The incubation mixture contained 50 ng of beta TGF (in 0.1% bovine serum albumin) and trypsin (500 μg). Mesoglycan or sulodexide or dextran sulfate or dextran or sucrase are used at the dose of 5000 μg.
The beta TGF biological activity is measured as described above after a dilution of 50 times and by using CCL64 cells.

[3] = tested on: FGF 2; test: potentialization of FGF 2 biological activity, tritiated thymidine incorporation in CCL39 cells; format: cell-based
From the text: as §1, §2

[4] = tested on: FGF1; test: protection of FGF1 against thermal degradation, activity on CCL39 cells; format: cell-based; conditions: 20 μg heparin, 10 μg mesoglycan or sulodexide; 20° C. and 37° C. for 1, 7, 15, 30 days
Experimental: (§3) (a) and 37° C. (b) for 1, 7, 15, 30 days. The measurement of the biological activity presented in abscissa corresponds to the stimulation unit values (ED50) of the incorporation of tritiated thymidine in CCL39 cells.
as §2

[5] = tested on: FGF2; test: protection of FGF2 against thermal degradation, activity on CCL39 cells; format: cell-based; conditions: 20 μg heparin, 10 μg mesoglycan or sulodexide; 20° C. and 37° C. for 1, 7, 15, 30 days
Experimental: as §3, §2

[6] = tested on: 125I-FGF1; test: protection of 125I-FGF1 against proteolytic degradation by trypsin, gel autoradiography; format: biochemical; conditions: 37° C., FIG. 5A
Experimental: (§4) Proteolytic digestion was carried out at 37° C. and the samples were separated by 18% polyacrylamide gel electrophoresis. The gels are dried and autoradiographed. The first track contains the ^125 I-FGF1 on its own.

[7] = tested on: 125I-FGF2; test: protection of 125I-FGF2 against proteolytic degradation by trypsin, gel autoradiography; format: biochemical; conditions: 37° C., FIG. 5B
Experimental: as §4
The arrangement of the tracks is identical to that presented for the ^125 I-FGF1 in FIG. 5A.

[8] = tested on: FGF; test: semi-quantitative evaluation of FGF protection against trypsin, densitometry of radio-labelled FGF; format: biochemical; conditions: FGF + trypsin + polymer; radio-labelled FGF found compared to quantity deposited
Experimental: As described above, a constant quantity of radioactive FGF is incubated under various conditions. After autoradiography of the reaction products, the non degraded quantity of radioactive FGF is quantified by densitometry. The values correspond to the percentage of radio-labelled FGF found, compared to the quantity deposited at the start of reaction (Table 5).

[9] = biological target: leukocytic elastase; test: inhibition of leukocytic elastase activity; format: biochemical; conditions: 37° C., pH 8, elastase 8.3 nM, 0.10 mM MeO-Suc-Ala-Ala-Pro-Val-pNA
Experimental: The purified leukocytic elastase was obtained by Elastin Products Co (Owenville, Mo., U.S.A.) and the plasmin from SIGMA.
The enzymes under consideration are placed in solution in a 100 mM Tris-HCL buffer, pH 8 for the elastase and pH 7.4 for the plasmin, in the presence of 0.02% sodium azide and 0.01% Triton X100 for the plasmin. The substrate and enzyme concentrations are: 0.10 mM MeO-Suc-Ala-Ala-Pro-Val-pNA (paranitroanilide)for the elastase at 8.3 nM, and 0.20 mM dVal-Leu-dLys-pNA for the plasmin at 77 nM. The IC50 is determined for each of the conditions.
Batch EM5 corresponds to a T10 dextran of […]. The intermediate products of synthesis are identified by the symbols given above with an index number specifying the number of each substitution reaction.

[10] = tested on: EDL muscles; test: regeneration of skeletal muscle after deinnervation followed by crushing; format: in vivo, Wistar rats; conditions: for Ratio regenerated/ contralateral intact (muscle weight): 10 μg injected after deinnervation and crushing; for % ratio treated/ ratio degenerated: 10 μg injected, PBS-treated muscle = 100
Experimental: The protocol is exactly the same as that described in Example 4 but the crushing of the muscle is preceded by section of the motor nerve at the entrance of the muscle.
The substances are in saline phosphate buffer solution (PBS).
Injection takes place after deinnervation and crushing , using a 50 μl microsyringe equipped with a flexible needle 60 mm in length and 0.4 mm in diameter. Two injections are carried out at an interval of 2 min. The volume injected is therefore 100 μl. The sucrase […] was supplied free of charge by D. Bar Shalom Bulk Medic, Denmark.
After sacrifice of the animal, the EDL muscles of the treated paw and the contralateral paw are weighed. Since individual variations in the weight of normal muscles in animals of the same age can reach 20%, the results were standardized by calculating the ratio of the treated muscle to its contralateral intact control.
This ratio was considered to be 100% for the muscles treated by PBS alone. The degree of regeneration of muscles treated by the different substances was calculated in % of the muscle injected by PBS.

[11] = biological target: leukocytic elastase; conditions: cited from earlier work
[12] = tested on: coagulation; test: anticoagulant activity
[13] = tested on: EDL muscles
Experimental: The experiment was conducted on seven Wistar rats aged two and a half months and weighing three hundred grams.
After annesthesia by ether, the EDL muscles (muscles of hind rat paws) were removed from the forefoot and mechanically damaged by applying a constant pressure on the entire length of the muscle, using a Pean forceps. The pressure was maintained for fifteen seconds, the forceps being closed at the second notch. The homogeneity of the lesion on the whole of the muscle was controlled by following its infarction for 30 seconds. The muscle was then put back in position and the skin sutured by linen thread.
The regeneration controls were injected with the same quantity of PBS alone. Depending on the experiments, injection took place before or after the lesion of the muscle. The 200 μl were injected in one minute and the product's diffusion was ensured by leaving the muscle for two minutes before putting it back in the forefoot.
The treated muscles and the controls were collected after 8 days of regeneration and then immediately frozen at -150° C. in isopentane. Frozen transverse sections of 10 μm thickness were made in the median region of the muscle. The dried sections were colored by Gomori trichrome.
The morphometric analysis of the number of fibers and of their diameter was performed on micrographic montages corresponding to a transverse half-section of muscle.

[14] = tested on: complement system; test: anticomplement activity (CH50); conditions: measured according to Mauzac et al.
[15] = tested on: trypsin; test: trypsin enzymatic activity on substrate S.87
Experimental: The enzymatic activity of trypsin was measured by spectrophotometric absorption of the transformation product of S 87 in versus of the incubation time.

[16] = beta TGF 50 ng + polymer 5000 μg + trypsin 500 μg
[17] = beta TGF 50 ng + polymer 5000 μg, no trypsin
[18] = 10 μg/ml mesoglycan or 20 μg/ml heparin, CCL39 cells
[19] = single injection of 200 μl of 50 μ/ml, after 8 days of regeneration

T1 sequence (P01137 279-390 limits assumed): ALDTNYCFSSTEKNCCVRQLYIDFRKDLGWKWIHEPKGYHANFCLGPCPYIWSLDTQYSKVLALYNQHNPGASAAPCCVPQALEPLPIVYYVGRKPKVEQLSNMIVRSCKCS

Molecule: FGF 1: FGF 1 recombinant form growth factor
ED50 of FGF 1 ([1]; FGF 1 alone, CCL39 cells): 5 ng/mL

biological activity of the beta TGF still present ([2]; after 10 min of incubation at 37° C. with trypsin): less than 20% | % inhibiting activity of the incorporation of tritiated thymidine in CCL64 cells [2, 16]: 10% | % inhibiting activity of the incorporation of tritiated thymidine in CCL64 cells [2, 17]: 100% | % inhibiting activity of the incorporation of tritiated thymidine in CCL64 cells ([2]; polymer 5000 μg alone, no beta TGF, no trypsin): 0% | Leukocytic elastase IC50 [9]: 1800 ng/mL
Molecule: heparin
protection of the beta TGF against proteolysis induced by trypsin (in words) [2]: neither sucrase, nor heparin nor dextran sulfate protect the beta TGF | ED50 of FGF 1 in the presence of the polymer [1, 18]: 0.4 ng/mL | potentialization of the biological activity of FGF1 (in words) ([1]; 20 μg of heparin, 10 μg of mesoglycan or 10 μg of sulodexide, FIG. 2A): potentialization of the biological activity | ED50 of FGF 2 in the presence of the polymer [3, 18]: 0.2 ng/mL | potentialization of the biological activity of FGF2 (in words) ([3]; 20 μg of heparin, 10 μg of mesoglycan or 10 μg of sulodexide, FIG. 2B): potentialization of the biological activity | protective effect against thermal degradation of FGF1 (in words) [4]: protective effect | protective effect against thermal degradation of FGF2 (in words) [5]: protective effect | protective effect against proteolytic degradation of 125I-FGF1 (in words) [6]: protective effect | protective effect against proteolytic degradation of 125I-FGF2 (in words) [7]: protective effect | PROTECTION (in %) of the FGF [8]: 100% | Ratio regenerated/ contralateral intact (muscle weight) [10]: 0.590 | % ratio treated/ ratio degenerated [10]: 86% | muscular repair and regeneration (in words) ([10]; rat, in vivo): neither heparin nor dextran sulfate present properties on muscular regeneration | Ki [11]: ~1 nM | anticoagulant activity [12]: 175 IU/mg

Protection of the beta TGF (beta TGF biological activity) [2, 16]: 0% | Protection of the beta TGF (beta TGF biological activity) [2, 17]: 100%
Molecule: dextran sulfate
protection of the beta TGF against proteolysis induced by trypsin (in words) [2]: neither sucrase, nor heparin nor dextran sulfate protect the beta TGF | Diameter of muscles [13, 19]: 3.9 ± 0.4 mm | Mean diameter of regenerated fibers [13, 19]: 28.2 ± 4.6 | Number of fibers on a half-section [13, 19]: 418 | muscular regeneration after crushing, macroscopic and histological findings (in words) ([13]; single injection, 8 days of regeneration): no qualitative or quantitative modification of muscular regeneration; also recorded: neither heparin nor dextran sulfate present properties on muscular regeneration

Molecule: FGF 2: FGF 2 recombinant form growth factor
ED50 of FGF 2 ([3]; FGF 2 alone, CCL39 cells): 3 ng/mL

Molecule: carboxymethyl dextran benzylamide sulfonate [CMDBS]
anticoagulant activity [12]: 4 IU/mg | anticomplement activity, CH50 [14]: 1.1 µg | inhibiting power on the activity of trypsin (in words) [15]: no inhibiting power | trypsin activity ([15]; Trypsin 10 ug/ml + S87 + 5 ug/ml CMDBS): 100 | trypsin activity ([15]; Trypsin 10 ug/ml + S87 + 50 ug/ml CMDBS): 100 | trypsin activity ([15]; Trypsin 10 ug/ml + S87 + 500 ug/ml CMDBS): 100

Molecule: O=S(=O)(O)OC[C@H]1O[C@@](COS(=O)(=O)O)(O[C@H]2O[C@H](COS(=O)(=O)O)[C@@H](OS(=O)(=O)O)[C@H](OS(=O)(=O)O)[C@H]2OS(=O)(=O)O)[C@@H](OS(=O)(=O)O)[C@@H]1OS(=O)(=O)O [sucrase, sucrose octasulfate]
protection of the beta TGF against proteolysis induced by trypsin (in words) [2]: neither sucrase, nor heparin nor dextran sulfate protect the beta TGF | Ratio regenerated/ contralateral intact (muscle weight) [10]: 0.620 | % ratio treated/ ratio degenerated [10]: 87%

Protection of the beta TGF (beta TGF biological activity) [2, 16]: 0% | Protection of the beta TGF (beta TGF biological activity) [2, 17]: 100%
Molecule: dextran

B1: STBI: trypsin inhibitor originating from soya, from Sigma (protein, UniProt P01070 25-205, looked up)
Trypsin inhibitor A: DFVLDNEGNPLENGGTYYILSDITAFGGIRAAPTGNERCPLTVVQSRNELDKGIGTIISSPYRIRFIAEGHPLSLKFDSFAVIMLCVGIPTEWSVVEDLPEGPAVKIGENKDAMDGWFRLERVSDDEFNNYKLVFCPQQAEDDKCGDIGISIDHDDGTRRLVVSKNKPLVVQFQKLDKESL
trypsin activity ([15]; Trypsin + S87 + STBI): 0
